Like-named read-outs stand apart in the source and are kept apart here.
Columns and labels:
Assay type in all cases: biochemical
CDK2/CycA2 = CDK2/CycA2 (Homo sapiens, UniProt P24941); assay: ADP-Glo kinase assay on CDK enzymatic activity, CDK2/CycA2; settings: 10 concentrations from 10 μM, 4-fold, 60 min room temperature
Excerpt: (§1) Test samples: the compounds of the present invention, having structures shown above.
(§2) ADP-Glo Kinase Assay (ADP-Glo kinase kit), DMSO (dimethyl sulfoxide), CDK9/CycT1 (cyclin-dependent kinase 9/cyclin T1), CDK tide (cyclin-dependent kinase substrate peptide fragments), CDK1/CycE1 (cyclin-dependent kinase 1/cyclin E1), CDK2/CycA2 (cyclin-dependent kinase 2/cyclin A2), CDK3/CycE1 (cyclin-dependent kinase 3/cyclin E1), CDK4/CycD3 (cyclin-dependent kinase 4/cyclin D3), CDK5/p25NCK (cyclin-dependent kinase 5/p25), and AZD 4573.
(§3) A 384-well white plate, a 96-well plate, a microplate oscillator, a centrifuge, and a microplate reader.
(§4) The compounds were dissolved in DMSO and diluted 4-fold in the 96-well plate to obtain stock solutions with 10 concentration gradients, and added into a 384-well plate system to obtain a series of 10 concentration gradients of compound solutions with final concentrations of 10 μM starting and 4-fold gradient decreasing. 1 μM AZD4573 was used as compound positive control (PC) and 0.5% DMSO as solvent vehicle control (VC), ten duplicated wells each for PC and VC.
(§5) 1 μL of compound solution and 2 μL of 2× kinase solution were transferred to each well, and the plate was centrifuged at 1000 g for 30 s and left at room temperature for 10 min. A mixture of 2× substrate and ATP was prepared in 1× kinase buffer. The reaction was started after adding 2 μL of substrate and ATP into the plate. The plate was centrifuged at 1000 g for 30 s. The assay plate was closed and left at room temperature for 60 min. The reaction system was added with 4 μL of ADP Glo reagent, centrifuged at 1000 rpm for 1 min, and incubated at room temperature for 40 min. The reaction system was added with 8 μL of kinase assay reagent, centrifuged at 1000 rpm for 1 min and incubated at room temperature for 40 min. The […] was read on Biotek.
(§6) The inhibition rate was calculated according to the following formula: […]
(§7) Lumcmpd: compound fluorescence reading; Lumpositive: average value of the fluorescence reading of positive compound control; Lumvehicle: average value of the fluorescence reading of solvent vehicle control.
(§8) IC50 values were fitted using GraphPad 7.0 based on inhibition rates of compounds at different concentrations.

CDK9/CycT1 = CDK9/CycT1 (Homo sapiens, UniProt P50750); assay: ADP-Glo kinase assay on CDK enzymatic activity, CDK9/CycT1; settings: 10 concentrations from 10 μM, 4-fold, 60 min room temperature
Excerpt: as §1, §2, §3, §4, §5, §6, §7, §8

CDK1/CycE1 = CDK1/CycE1 (Homo sapiens, UniProt P06493); assay: ADP-Glo kinase assay on CDK enzymatic activity, CDK1/CycE1
Method: as §1, §3, §4, §5, §6, §7, §8

[1] = ADP-Glo, 10 concentrations from 10 μM, 4-fold, 60 min room temperature, read-out: CDK1/CycE1/nM (IC50)

Chain of CDK1/CycE1 (P06493 whole entry, species assumed): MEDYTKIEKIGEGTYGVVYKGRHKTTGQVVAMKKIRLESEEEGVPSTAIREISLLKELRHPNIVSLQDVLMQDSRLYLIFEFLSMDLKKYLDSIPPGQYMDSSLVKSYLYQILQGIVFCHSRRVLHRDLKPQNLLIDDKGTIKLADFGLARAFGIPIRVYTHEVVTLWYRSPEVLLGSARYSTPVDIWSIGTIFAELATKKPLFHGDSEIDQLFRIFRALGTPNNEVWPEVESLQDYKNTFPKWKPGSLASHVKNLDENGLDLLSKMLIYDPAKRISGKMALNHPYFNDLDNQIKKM
Chain of CDK1/CycE1 (P24864 whole entry partner, species assumed): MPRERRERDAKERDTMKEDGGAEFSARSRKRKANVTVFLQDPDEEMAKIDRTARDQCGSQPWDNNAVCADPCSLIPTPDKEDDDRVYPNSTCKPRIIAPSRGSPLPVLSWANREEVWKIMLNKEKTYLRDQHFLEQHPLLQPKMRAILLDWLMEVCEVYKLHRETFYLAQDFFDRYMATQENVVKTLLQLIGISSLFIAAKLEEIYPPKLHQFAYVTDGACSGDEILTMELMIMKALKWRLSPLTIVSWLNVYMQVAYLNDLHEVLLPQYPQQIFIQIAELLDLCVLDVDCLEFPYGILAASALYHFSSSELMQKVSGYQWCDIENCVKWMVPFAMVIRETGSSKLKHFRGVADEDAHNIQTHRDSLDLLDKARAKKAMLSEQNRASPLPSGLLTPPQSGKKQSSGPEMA
Chain of CDK9/CycT1 (P50750 whole entry): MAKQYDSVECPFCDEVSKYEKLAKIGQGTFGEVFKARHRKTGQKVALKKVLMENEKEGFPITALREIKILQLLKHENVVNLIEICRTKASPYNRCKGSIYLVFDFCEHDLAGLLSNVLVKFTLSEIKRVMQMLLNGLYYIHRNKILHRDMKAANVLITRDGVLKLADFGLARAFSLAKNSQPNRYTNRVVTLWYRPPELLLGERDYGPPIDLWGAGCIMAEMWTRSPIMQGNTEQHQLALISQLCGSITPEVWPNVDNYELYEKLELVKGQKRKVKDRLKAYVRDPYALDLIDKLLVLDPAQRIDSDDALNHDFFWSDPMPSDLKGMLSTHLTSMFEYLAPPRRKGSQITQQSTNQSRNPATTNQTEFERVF
Chain of CDK9/CycT1 (O60563 whole entry partner): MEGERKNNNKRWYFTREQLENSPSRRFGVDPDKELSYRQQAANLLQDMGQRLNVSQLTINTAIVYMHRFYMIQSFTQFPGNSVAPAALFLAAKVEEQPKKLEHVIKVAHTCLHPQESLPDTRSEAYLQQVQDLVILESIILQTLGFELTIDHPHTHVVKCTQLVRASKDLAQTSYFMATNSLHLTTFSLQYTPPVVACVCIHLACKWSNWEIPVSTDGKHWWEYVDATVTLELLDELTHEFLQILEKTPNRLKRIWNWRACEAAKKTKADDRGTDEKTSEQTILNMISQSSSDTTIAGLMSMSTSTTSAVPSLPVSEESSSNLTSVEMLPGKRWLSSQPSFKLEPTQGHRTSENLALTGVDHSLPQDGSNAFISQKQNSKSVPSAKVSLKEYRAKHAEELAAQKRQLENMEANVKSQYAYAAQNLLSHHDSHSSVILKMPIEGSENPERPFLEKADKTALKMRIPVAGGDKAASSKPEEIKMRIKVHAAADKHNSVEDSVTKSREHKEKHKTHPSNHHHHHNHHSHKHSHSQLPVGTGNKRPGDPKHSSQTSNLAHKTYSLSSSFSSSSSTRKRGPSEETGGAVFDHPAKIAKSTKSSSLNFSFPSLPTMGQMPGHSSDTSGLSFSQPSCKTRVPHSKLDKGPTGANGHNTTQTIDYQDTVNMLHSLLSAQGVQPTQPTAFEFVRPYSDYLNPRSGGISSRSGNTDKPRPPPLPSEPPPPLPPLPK

Question: What does the source list for `N#Cc1cc2cnc(N[C@H]3CCCNC3)cc2c(C2=CCCC2)n1` [Compound 181]?
Answer: IC50 (CDK2/CycA2): 153 nM; IC50 (CDK9/CycT1): 7 nM; IC50 (CDK1/CycE1; [1]): 518 nM

Question: Which IC50 (CDK2/CycA2) does the source give for `N#Cc1cc2cnc(N[C@H]3C[C@H](N)C3)nc2c(N2CCCCC2)n1` [Compound C15, 2-(((1r,3r)-3-aminocyclobutyl)amino)-8-(piperidin-1-yl)pyrido[3,4-d]pyrimidine-6-carbonitrile] here?
Answer: 253 nM

Question: What about the IC50 (CDK9/CycT1) of the same molecule?
Answer: 2 nM

Question: And the IC50 (CDK1/CycE1; [1])?
Answer: 114 nM

Question: With `CC(C)Nc1nc(C#N)cc2cnc(N[C@H]3C[C@H](N(C)C)C3)nc12` [Compound C24, 2-(((1r,3r)-3-(dimethylamino)cyclobutyl)amino)-8-(isopropylamino)pyrido[3,4-d]pyrimidine-6-carbonitrile] as the molecule, how does the IC50 (CDK2/CycA2) read?
Answer: 115 nM

Question: And the IC50 (CDK9/CycT1)?
Answer: 2 nM

Question: What about the IC50 (CDK1/CycE1; [1]) of the same molecule?
Answer: 142 nM

Question: Which results are given for `CC(C)Nc1nc(C#N)cc2cnc(N[C@H]3C[C@@H](N)C3)cc12` [Compound 164, 7-(((1s,3s)-3-aminocyclobutyl)amino)-1-(isopropylamino)-2,6-naphthyridine-3-carbonitrile]?
Answer: IC50 (CDK2/CycA2): 135 nM; IC50 (CDK9/CycT1): 1 nM; IC50 (CDK1/CycE1; [1]): 138 nM

Question: Which results are given for `CC(C)Oc1nc(C#N)cc2cnc(N[C@H]3C[C@H](N)C3)cc12` [Compound 207, 7-(((1r,3r)-3-aminocyclobutyl)amino)-1-isopropoxy-2,6-naphthyridine-3-carbonitrile]?
Answer: IC50 (CDK2/CycA2): 29 nM; IC50 (CDK9/CycT1): 1 nM; IC50 (CDK1/CycE1; [1]): 126 nM

Question: Which IC50 (CDK2/CycA2) does the source give for `CC(C)CNc1nc(C#N)cc2cnc(N[C@H]3C[C@H](N)C3)nc12` [Compound C25, 2-(((1r,3r)-3-aminocyclobutyl)amino)-8-(isobutylamino)pyrido[3,4-d]pyrimidine-6-carbonitrile] here?
Answer: 34 nM

Question: What about the IC50 (CDK9/CycT1) of the same molecule?
Answer: 1 nM

Question: And the IC50 (CDK1/CycE1; [1])?
Answer: 86 nM

Question: How did the IC50 (CDK2/CycA2) turn out when `CN[C@H]1C[C@H](Nc2ncc3cc(C#N)nc(NC(C)C)c3n2)C1` [Compound C20, 8-(isopropylamino)-2-(((1r,3r)-3-(methylamino)cyclobutyl)amino)pyrido[3,4-d]pyrimidine-6-carbonitrile] was run?
Answer: 18 nM

Question: What about the IC50 (CDK9/CycT1) of the same molecule?
Answer: 1 nM

Question: What about the IC50 (CDK1/CycE1; [1]) of the same molecule?
Answer: 71 nM

Question: What does the source list for `N#Cc1cc2cnc(N[C@H]3CC[C@H](N)C3)cc2c(N[C@@H]2CCOC2)n1` [Compound 173, 7-(((1S,3S)-3-aminocyclopentyl)amino)-1-(((R)-tetrahydrofuran-3-yl)amino)-2,6-naphthyridine-3-carbonitrile]?
Answer: IC50 (CDK2/CycA2): 436 nM; IC50 (CDK9/CycT1): 4 nM; IC50 (CDK1/CycE1; [1]): 952 nM

Question: Which IC50 (CDK2/CycA2) does the source give for `N#Cc1cc2cnc(N[C@H]3CCCNC3)cc2c(OC2CCCC2)n1` [Compound 185, (S)-1-(cyclopentyloxy)-7-(piperidin-3-ylamino)-2,6-naphthyridine-3-carbonitrile] here?
Answer: 356 nM

Question: What about the IC50 (CDK9/CycT1) of the same molecule?
Answer: 3 nM

Question: What about the IC50 (CDK1/CycE1; [1]) of the same molecule?
Answer: 134 nM

Question: What does the source list for `CCOc1nc(C#N)cc2cnc(N[C@H]3C[C@H](N)C3)cc12` [Compound 191, 7-(((1r,3r)-3-aminocyclobutyl)amino)-1-ethoxy-2,6-naphthyridine-3-carbonitrile]?
Answer: IC50 (CDK2/CycA2): 1110 nM; IC50 (CDK9/CycT1): 5 nM; IC50 (CDK1/CycE1): 1950 nM

Question: What does the source list for `CC(C)Nc1nc(C#N)cc2cnc(N[C@H]3C[C@@H](N4CCN(C)CC4)C3)nc12` [Compound C23, 8-(isopropylamino)-2-(((1s,3s)-3-(4-methylpiperazin-1-yl)cyclobutyl)amino)pyrido[3,4-d]pyrimidine-6-carbonitrile]?
Answer: IC50 (CDK2/CycA2): 59 nM; IC50 (CDK9/CycT1): 6 nM; IC50 (CDK1/CycE1; [1]): 288 nM

Question: With `CC1(Nc2nc(C#N)cc3cnc(N[C@H]4C[C@](C)(N)C4)cc23)CC1` [Compound 211, 7-((trans)-3-amino-3-methylcyclobutyl)amino-1-((1-methylcyclopropyl)amino)-2,6-naphthyridine-3-carbonitrile] as the molecule, how does the IC50 (CDK2/CycA2) read?
Answer: 434 nM

Question: And the IC50 (CDK9/CycT1)?
Answer: 3 nM

Question: And the IC50 (CDK1/CycE1; [1])?
Answer: 233 nM

Question: For `CC(C)(C)Nc1nc(C#N)cc2cnc(N[C@H]3C[C@H](O)C3)nc12` [Compound C9, 8-(tert-butylamino)-2-(((1r,3r)-3-hydroxycyclobutyl)amino)pyrido[3,4-d]pyrimidine-6-carbonitrile], which IC50 (CDK2/CycA2) is on record?
Answer: 8 nM

Question: What about the IC50 (CDK9/CycT1) of the same molecule?
Answer: 1 nM

Question: And the IC50 (CDK1/CycE1; [1])?
Answer: 8 nM

Question: What does the source list for `CC(C)Nc1nc(C#N)cc2cnc(N[C@H]3CC[C@H](N(C)C)CC3)nc12` [Compound 138, 2-(((1r,4r)-4-(dimethylamino)cyclohexyl)amino)-8-(isopropylamino)pyrido[3,4-d]pyrimidine-6-carbonitrile]?
Answer: IC50 (CDK2/CycA2): 49 nM; IC50 (CDK9/CycT1): 3 nM; IC50 (CDK1/CycE1; [1]): 166 nM

Question: `N#Cc1cc2cnc(N[C@H]3C[C@H](N)C3)nc2c(NC2CCOCC2)n1` [Compound C30, 2-(((1r,3r)-3-aminocyclobutyl)amino)-8-((tetrahydro-2H-pyran-4-yl)amino)pyrido[3,4-d]pyrimidine-6-carbonitrile] was tested. Which IC50 (CDK2/CycA2) did it give?
Answer: 83 nM

Question: And the IC50 (CDK9/CycT1)?
Answer: 2 nM

Question: And the IC50 (CDK1/CycE1; [1])?
Answer: 99 nM

Question: How did the IC50 (CDK2/CycA2) turn out when `N#Cc1cc2cnc(N[C@H]3C[C@@H](N)C3)cc2c(N[C@@H]2CCOC2)n1` [Compound 174, 7-(((1s,3S)-3-aminocyclobutyl)amino)-1-(((R)-tetrahydrofuran-3-yl)amino)-2,6-naphthyridine-3-carbonitrile] was run?
Answer: 510 nM

Question: And the IC50 (CDK9/CycT1)?
Answer: 2 nM

Question: What about the IC50 (CDK1/CycE1; [1]) of the same molecule?
Answer: 871 nM

Question: Which results are given for `CC(C)(C)Nc1nc(C(F)F)cc2cnc(N[C@H]3C[C@H](O)C3)nc12` [Compound C8, (1r,3r)-3-((8-(tert-butylamino)-6-(difluoromethyl)pyrido[3,4-d]pyrimidin-2-yl)amino)cyclobutan-1-ol]?
Answer: IC50 (CDK2/CycA2): 5 nM; IC50 (CDK9/CycT1): 2 nM; IC50 (CDK1/CycE1; [1]): 8 nM

Question: What does the source list for `N#Cc1cc2cnc(N[C@H]3CCCNC3)cc2c(NC2CCCC2)n1` [Compound 168, (S)-1-(cyclopentylamino)-7-(piperidin-3-ylamino)-2,6-naphthyridine-3-carbonitrile]?
Answer: IC50 (CDK2/CycA2): 125 nM; IC50 (CDK9/CycT1): 1 nM; IC50 (CDK1/CycE1; [1]): 63 nM

Question: `CC(C)(C)Nc1nc(C#N)cc2cnc(N[C@H]3C[C@H](N)C3)nc12` [Compound C18, 2-(((1r,3r)-3-aminocyclobutyl)amino)-8-(tert-butylamino)pyrido[3,4-d]pyrimidine-6-carbonitrile] was tested. Which IC50 (CDK2/CycA2) did it give?
Answer: 8 nM

Question: What about the IC50 (CDK9/CycT1) of the same molecule?
Answer: 2 nM

Question: What about the IC50 (CDK1/CycE1; [1]) of the same molecule?
Answer: 23 nM

Question: How did the IC50 (CDK2/CycA2) turn out when `CC(C)(C)Nc1nc(C#N)cc2cnc(N[C@H]3CCCNC3)nc12` [Compound C7, (S)-8-(tert-butylamino)-2-(piperidin-3-ylamino)pyrido[3,4-d]pyrimidine-6-carbonitrile] was run?
Answer: 144 nM

Question: What about the IC50 (CDK9/CycT1) of the same molecule?
Answer: 3 nM

Question: And the IC50 (CDK1/CycE1; [1])?
Answer: 74 nM

Question: Which results are given for `N#Cc1cc2cnc(N[C@H]3CCCNC3)cc2c(C2=CCCCC2)n1` [Compound 180, (S)-1-(cyclohex-1-en-1-yl)-7-(piperidin-3-ylamino)-2,6-naphthyridine-3-carbonitrile]?
Answer: IC50 (CDK2/CycA2): 844 nM; IC50 (CDK9/CycT1): 7 nM; IC50 (CDK1/CycE1; [1]): 204 nM

Question: How did the IC50 (CDK2/CycA2) turn out when `N#Cc1cc2cnc(N[C@H]3C[C@H](N)C3)nc2c(NC23CC(C2)C3)n1` [Compound C36, 2-(((1r,3r)-3-aminocyclobutyl)amino)-8-(bicyclo[1.1.1]pentan-1-ylamino)pyrido[3,4-d]pyrimidine-6-carbonitrile] was run?
Answer: 32 nM

Question: What about the IC50 (CDK9/CycT1) of the same molecule?
Answer: 2 nM

Question: And the IC50 (CDK1/CycE1; [1])?
Answer: 25 nM

Question: For `CC(C)Nc1nc(C#N)cc2cnc(N[C@H]3C[C@@H](O)C3)nc12` [Compound 133, 2-(((1s,3s)-3-hydroxycyclobutyl)amino)-8-(isopropylamino)pyrido[3,4-d]pyrimidine-6-carbonitrile], which IC50 (CDK2/CycA2) is on record?
Answer: 10 nM

Question: What about the IC50 (CDK9/CycT1) of the same molecule?
Answer: 2 nM

Question: And the IC50 (CDK1/CycE1; [1])?
Answer: 29 nM

Question: How did the IC50 (CDK9/CycT1) turn out when `CC(C)Nc1nc(C#N)cc2cnc(N[C@H]3C[C@@H](CN)C3)nc12` [Compound C17, 2-(((1s,3s)-3-(aminomethyl)cyclobutyl)amino)-8-(isopropylamino)pyrido[3,4-d]pyrimidine-6-carbonitrile] was run?
Answer: 2 nM

Question: How did the IC50 (CDK9/CycT1) turn out when `COC[C@H](C)Nc1nc(C#N)cc2cnc(N[C@H]3C[C@H](N)C3)nc12` [Compound C42, 2-(((1r,3S)-3-aminocyclobutyl)amino)-8-(((S)-1-methoxypropan-2-yl)amino)pyrido[3,4-d]pyrimidine-6-carbonitrile] was run?
Answer: 2 nM

Question: For `CN(C)[C@H]1CC[C@H](Nc2ncc3cc(C#N)nc(N[C@@H]4CCOC4)c3n2)CC1` [Compound C40, 2-(((1r,4R)-4-(dimethylamino)cyclohexyl)amino)-8-(((R)-tetrahydrofuran-3-yl)amino)pyrido[3,4-d]pyrimidine-6-carbonitrile], which IC50 (CDK9/CycT1) is on record?
Answer: 5 nM

Question: For `CCNc1nc(C#N)cc2cnc(N[C@H]3C[C@](C)(N)C3)nc12` [Compound C38, 2-(((1r,3r)-3-amino-3-methylcyclobutyl)amino)-8-(ethylamino)pyrido[3,4-d]pyrimidine-6-carbonitrile], which IC50 (CDK9/CycT1) is on record?
Answer: 1 nM
